Square brackets hold non-standard residues; d marks the D form. Peptide text beside a SMILES is read from it.
Biological target: T1, apoE3 (Homo sapiens, UniProt P02649)
T1 construct: made in house; host or cells: primary forebrain astrocytes of GFAP-human apoE3 transgenic mice
Test: Thioflavin-T aggregation inhibition: apoE3-promoted Aβ1-42 fibril formation
Type: biochemical
Details: for relative reduction in fluorescence: apoE3 preincubated with Aβ12-28P, then added to Aβ1-42
Experimental: Recombinant apoE3 and apoE4 were purchased from Calbiochem Corp. (San Diego, Calif.). Lipidated apoE3 and apoE4 complexes were prepared from primary cultures of astrocytes derived from Tg mice in which human apoE3 or apoE4 were expressed under the control of the astrocyte-specific glial fibrillary acidic protein (GFAP) promoter as described previously (Fagan et al., “Unique Lipoproteins Secreted by Primary Astrocytes from Wild Type, ApoE (−/−), and Human ApoE Transgenic Mice,” J. Biol. Chem. 274:30001-30007 (1999); DeMattos et al., “Purification and Characterization of Astrocyte-secreted Apolipoprotein E and J-Containing Lipoproteins from Wild-type and Human ApoE Transgenic Mice,” Neurochemistry International 39:415-425 (2001); Sun et al., “Glial Fibrillary Acidic Protein-apolipoprotein E (apoE) Transgenic Mice: Astrocyte-specific Expression and Differing Biological Effects of Astrocyte-secreted ApoE3 and ApoE4 Lipoproteins,” J. Neurosci. 18:3261-3272 (1998); which are hereby incorporated by reference in their entirety). […] The purity of the apoE preparation was assessed by SDS-PAGE.
Aβ1-40 and Aβ1-42 were studied for comparison. […] Samples containing 15 μg of incubated peptides were taken at indicated intervals and fluorescence was measured as previously described in a Perkin-Elmer LS-50B fluorescence spectrophotometer (Perkin Elmer Instruments, Shelton, Conn.) (Wisniewski et al., “Acceleration of Alzheimer's Fibril Formation by Apolipoprotein E in vitro,” Am. J. Pathol. 145:1030-1035 (1994); Golabek et al., “The Interaction Between Apolipoprotein E and Alzheimer's Amyloid β-peptide is Dependent on β-peptide Conformation,” J. Biol. Chem. 271:10602-10606 (1996); which are hereby incorporated by reference in their entirety). […] Differences in amount of fibrils formed by the different peptides were evaluated by means of a repeated measures ANOVA, followed by a Tukey HSD post-hoc test using Statistica (version 6.1) (StatSoft Inc., Tulsa, Okla.). […]

T1 sequence (P02649 19-317): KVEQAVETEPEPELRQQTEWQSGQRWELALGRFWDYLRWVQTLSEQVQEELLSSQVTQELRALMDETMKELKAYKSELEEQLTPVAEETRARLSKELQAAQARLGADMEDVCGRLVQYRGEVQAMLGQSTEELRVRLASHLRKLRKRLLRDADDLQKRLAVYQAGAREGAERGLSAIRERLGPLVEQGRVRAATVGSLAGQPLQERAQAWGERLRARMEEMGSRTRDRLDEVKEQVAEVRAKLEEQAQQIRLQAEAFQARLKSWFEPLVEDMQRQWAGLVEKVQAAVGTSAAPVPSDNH

## CC(=O)N[C@@H](C(=O)N[C@H](Cc1c[nH]cn1)C(=O)N[C@H](Cc1c[nH]cn1)C(=O)N[C@H](CCC(N)=O)C(=O)N[C@H](CCCCN)C(=O)N[C@H](CC(C)C)C(=O)N1CCC[C@@H]1C(=O)N[C@H](Cc1ccccc1)C(=O)N[C@H](Cc1ccccc1)C(=O)N[C@H](C)C(=O)N[C@H](CCC(=O)O)C(=O)N[C@H](CC(=O)O)C(=O)N[C@@H](C(=O)NCC(=O)N[C@H](CO)C(=O)N[C@H](CC(N)=O)C(=O)N[C@H](CCCCN)C(N)=O)C(C)C)C(C)C [Aβ12-28P] (Ac-[dV][dH][dH][dQ][dK][dL][dP][dF][dF][dA][dE][dD][dV]G[dS][dN][dK]-NH2)
After 24 h of incubation
  relative reduction in fluorescence: 14.5%
Day six
  relative reduction in fluorescence: 48.3%
apoE3 preincubated with equimolar Aβ12-28P, p<0.05
  chaperoning effect of apoE3 on Aβ1-42 fibril formation: significantly reduced
